According to PubChem BioAssay AID1919015 (Molecular Pharmacology Branch, DTP, NCI, 2023):

Test system: OVCAR-5 complex spheroids with HUVEC/MSC, viability, % test/control
Assay: Anticancer human tumor OVCAR-5 cell line growth inhibition [AhR];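 note: spheroids exposed to compounds for 7 days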;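 for viability, T/C: 100% = DMSO vehicle control wells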
Conditions: for IC50: curve of first compound; for viability, T/C: stronger effect = lower value
Procedure, shortened: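 Agents were dosed in half-log steps down from roughly clinical Cmax, or from 10 microM where Cmax was unknown, alone and with AhR antagonists. Read-out: percent test/control growth of tumor spheroids containing HUVEC and MSC stromal cells.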

[1] = second compound 0.1 µM, first compound 0.00316 µM
[2] = second compound 0.1 µM, first compound 0.01 µM
[3] = second compound 0.1 µM, first compound 0.0316 µM
[4] = second compound 0.1 µM, first compound 0.1 µM
[5] = second compound 0.316 µM, first compound 0.00316 µM
[6] = second compound 0.316 µM, first compound 0.01 µM
[7] = second compound 0.316 µM, first compound 0.0316 µM
[8] = second compound 0.316 µM, first compound 0.1 µM
[9] = second compound 1 µM, first compound 0.00316 µM
[10] = second compound 1 µM, first compound 0.01 µM
[11] = second compound 1 µM, first compound 0.0316 µM
[12] = second compound 1 µM, first compound 0.1 µM
[13] = second compound 3.16 µM, first compound 0.00316 µM
[14] = second compound 3.16 µM, first compound 0.01 µM
[15] = second compound 3.16 µM, first compound 0.0316 µM
[16] = second compound 3.16 µM, first compound 0.1 µM
[17] = second compound 10 µM, first compound 0.00316 µM
[18] = second compound 10 µM, first compound 0.01 µM
[19] = second compound 10 µM, first compound 0.0316 µM
[20] = second compound 10 µM, first compound 0.1 µM
[21] = second compound 0.1 µM, first compound 0.316 µM
[22] = second compound 0.1 µM, first compound 1 µM
[23] = second compound 0.1 µM, first compound 3.16 µM
[24] = second compound 0.1 µM, first compound 10 µM
[25] = second compound 0.316 µM, first compound 0.316 µM
[26] = second compound 0.316 µM, first compound 1 µM
[27] = second compound 0.316 µM, first compound 3.16 µM
[28] = second compound 0.316 µM, first compound 10 µM
[29] = second compound 1 µM, first compound 0.316 µM
[30] = second compound 1 µM, first compound 1 µM
[31] = second compound 1 µM, first compound 3.16 µM
[32] = second compound 1 µM, first compound 10 µM
[33] = second compound 3.16 µM, first compound 0.316 µM
[34] = second compound 3.16 µM, first compound 1 µM
[35] = second compound 3.16 µM, first compound 3.16 µM
[36] = second compound 3.16 µM, first compound 10 µM
[37] = second compound 10 µM, first compound 0.316 µM
[38] = second compound 10 µM, first compound 1 µM
[39] = second compound 10 µM, first compound 3.16 µM
[40] = second compound 10 µM, first compound 10 µM

CC[C@@]1(O)C(=O)OCc2c1cc1n(c2=O)Cc2cc3c(CN(C)C)c(O)ccc3nc2-1 + Cc1cncc(-c2nc(NCCc3c[nH]c4ccccc34)c3ncn(C(C)C)c3n2)c1
IC50 (second compound 0.1 µM): > 100 nM | IC50 (second compound 0.316 µM): > 100 nM | IC50 (second compound 1 µM): > 100 nM | IC50 (second compound 3.16 µM): 25.3 nM | IC50 (second compound 10 µM): < 0.316 nM | viability, T/C (second compound 0.1 µM, first compound 0.000316 µM): 100% | viability, T/C (second compound 0.1 µM, first compound 0.001 µM): 105% | viability, T/C [1]: 97.4% | viability, T/C [2]: 87% | viability, T/C [3]: 49.3% | viability, T/C [4]: 52.3% | viability, T/C (second compound 0.316 µM, first compound 0.000316 µM): 97.9% | viability, T/C (second compound 0.316 µM, first compound 0.001 µM): 100% | viability, T/C [5]: 92.7% | viability, T/C [6]: 82.2% | viability, T/C [7]: 50% | viability, T/C [8]: 52.8% | viability, T/C (second compound 1 µM, first compound 0.000316 µM): 93.6% | viability, T/C (second compound 1 µM, first compound 0.001 µM): 91.6% | viability, T/C [9]: 90.1% | viability, T/C [10]: 79.9% | viability, T/C [11]: 48.4% | viability, T/C [12]: 55.8% | viability, T/C (second compound 3.16 µM, first compound 0.000316 µM): 79.2% | viability, T/C (second compound 3.16 µM, first compound 0.001 µM): 79.5% | viability, T/C [13]: 77.2% | viability, T/C [14]: 62.9% | viability, T/C [15]: 43.4% | viability, T/C [16]: 50.5% | viability, T/C (second compound 10 µM, first compound 0.000316 µM): 22.3% | viability, T/C (second compound 10 µM, first compound 0.001 µM): 24.9% | viability, T/C [17]: 26.9% | viability, T/C [18]: 16.5% | viability, T/C [19]: 6.78% | viability, T/C [20]: 14.5%

COc1cc(C2c3cc4c(cc3C(OC3OC5COC(C)OC5C(O)C3O)C3COC(=O)C23)OCO4)cc(OC)c1O (stereo not given) + Cc1cncc(-c2nc(NCCc3c[nH]c4ccccc34)c3ncn(C(C)C)c3n2)c1
IC50 (second compound 0.1 µM): 2680 nM | IC50 (second compound 0.316 µM): 2940 nM | IC50 (second compound 1 µM): 2360 nM | IC50 (second compound 3.16 µM): 909 nM | IC50 (second compound 10 µM): < 31.6 nM | viability, T/C [3]: 97.2% | viability, T/C [4]: 97.1% | viability, T/C [21]: 90.8% | viability, T/C [22]: 68.8% | viability, T/C [23]: 47.8% | viability, T/C [24]: 36.1% | viability, T/C [7]: 97.1% | viability, T/C [8]: 93.3% | viability, T/C [25]: 86% | viability, T/C [26]: 67.7% | viability, T/C [27]: 49% | viability, T/C [28]: 37.6% | viability, T/C [11]: 90% | viability, T/C [12]: 91.6% | viability, T/C [29]: 79.7% | viability, T/C [30]: 62.9% | viability, T/C [31]: 46.1% | viability, T/C [32]: 37.4% | viability, T/C [15]: 79.8% | viability, T/C [16]: 80.1% | viability, T/C [33]: 67.9% | viability, T/C [34]: 48.1% | viability, T/C [35]: 37.6% | viability, T/C [36]: 33% | viability, T/C [19]: 9.11% | viability, T/C [20]: 9.43% | viability, T/C [37]: 7.81% | viability, T/C [38]: 4.62% | viability, T/C [39]: 3.56% | viability, T/C [40]: 7.82%

COc1cccc2c1C(=O)c1c(O)c3c(c(O)c1C2=O)CC(O)(C(=O)CO)CC3OC1CC(N)C(O)C(C)O1 (stereo not given) + Cc1cncc(-c2nc(NCCc3c[nH]c4ccccc34)c3ncn(C(C)C)c3n2)c1
IC50 (second compound 0.1 µM): 310 nM | IC50 (second compound 0.316 µM): 240 nM | IC50 (second compound 1 µM): 241 nM | IC50 (second compound 3.16 µM): < 31.6 nM | IC50 (second compound 10 µM): < 31.6 nM | viability, T/C [3]: 63.7% | viability, T/C [4]: 54.8% | viability, T/C [21]: 49% | viability, T/C [22]: 27.9% | viability, T/C [23]: 1.4% | viability, T/C [24]: 1.85% | viability, T/C [7]: 61.8% | viability, T/C [8]: 54% | viability, T/C [25]: 47.3% | viability, T/C [26]: 26.9% | viability, T/C [27]: 2.85% | viability, T/C [28]: 1.79% | viability, T/C [11]: 55.4% | viability, T/C [12]: 51.6% | viability, T/C [29]: 48.2% | viability, T/C [30]: 24.3% | viability, T/C [31]: 1.27% | viability, T/C [32]: 1.8% | viability, T/C [15]: 42.7% | viability, T/C [16]: 42.8% | viability, T/C [33]: 39.3% | viability, T/C [34]: 19.3% | viability, T/C [35]: 1.16% | viability, T/C [36]: 1.68% | viability, T/C [19]: 5.12% | viability, T/C [20]: 5.58% | viability, T/C [37]: 13.1% | viability, T/C [38]: 4.16% | viability, T/C [39]: 1.37% | viability, T/C [40]: 1.89%

Nc1ccn(C2OC(CO)C(O)C2(F)F)c(=O)n1 (stereo not given) + Cc1cncc(-c2nc(NCCc3c[nH]c4ccccc34)c3ncn(C(C)C)c3n2)c1
IC50 (second compound 0.1 µM): < 31.6 nM | IC50 (second compound 0.316 µM): < 31.6 nM | IC50 (second compound 1 µM): < 31.6 nM | IC50 (second compound 3.16 µM): < 31.6 nM | IC50 (second compound 10 µM): < 31.6 nM | viability, T/C [3]: 33.2% | viability, T/C [4]: 30.1% | viability, T/C [21]: 31.2% | viability, T/C [22]: 33% | viability, T/C [23]: 33% | viability, T/C [24]: 31.6% | viability, T/C [7]: 33.6% | viability, T/C [8]: 30.9% | viability, T/C [25]: 32% | viability, T/C [26]: 32% | viability, T/C [27]: 32.2% | viability, T/C [28]: 31.6% | viability, T/C [11]: 33.6% | viability, T/C [12]: 31.5% | viability, T/C [29]: 34.1% | viability, T/C [30]: 33% | viability, T/C [31]: 34.9% | viability, T/C [32]: 32% | viability, T/C [15]: 33.6% | viability, T/C [16]: 33.4% | viability, T/C [33]: 32% | viability, T/C [34]: 32.5% | viability, T/C [35]: 35% | viability, T/C [36]: 34.4% | viability, T/C [19]: 3.2% | viability, T/C [20]: 3.6% | viability, T/C [37]: 4.58% | viability, T/C [38]: 4.3% | viability, T/C [39]: 6.36% | viability, T/C [40]: 9.03%

Nc1ncn(C2CC(O)C(CO)O2)c(=O)n1 (stereo not given) + Cc1cncc(-c2nc(NCCc3c[nH]c4ccccc34)c3ncn(C(C)C)c3n2)c1
IC50 (second compound 0.1 µM): > 1000 nM | IC50 (second compound 0.316 µM): > 1000 nM | IC50 (second compound 1 µM): > 1000 nM | IC50 (second compound 3.16 µM): > 1000 nM | IC50 (second compound 10 µM): < 3.16 nM | viability, T/C [1]: 98.3% | viability, T/C [2]: 94.2% | viability, T/C [3]: 87.6% | viability, T/C [4]: 80.7% | viability, T/C [21]: 69% | viability, T/C [22]: 62.7% | viability, T/C [5]: 93.8% | viability, T/C [6]: 91.7% | viability, T/C [7]: 90% | viability, T/C [8]: 74.8% | viability, T/C [25]: 65.5% | viability, T/C [26]: 59% | viability, T/C [9]: 96.2% | viability, T/C [10]: 85.5% | viability, T/C [11]: 85.4% | viability, T/C [12]: 78.3% | viability, T/C [29]: 61.5% | viability, T/C [30]: 61.8% | viability, T/C [13]: 79.8% | viability, T/C [14]: 77.8% | viability, T/C [15]: 70.4% | viability, T/C [16]: 64% | viability, T/C [33]: 59.8% | viability, T/C [34]: 51.2% | viability, T/C [17]: 10.4% | viability, T/C [18]: 10.1% | viability, T/C [19]: 8.47% | viability, T/C [20]: 8.64% | viability, T/C [37]: 8.49% | viability, T/C [38]: 11.6%
